Assay results from US7875633B2, “Phenylpyridone derivative” (Banyu Pharmaceutical Co., Ltd., priority 2005, dated 2011).

Biological target: T1, human MCH-1R (Homo sapiens, UniProt Q99705)
T1 construct: expressed in transfected cells; host or cells: CHO-K1 (American Type Culture Collection); membrane samples
Assay: MCH binding inhibition test
Conditions: membranes of MCH-1R expressing CHO-K1 cells, 50 pM [125I]MCH, 25° C., one hour, pH 7.4; read-out: IC50 (50% inhibition concentration to the specific [125I]MCH binding)
Text: Pharmacological Test Example 1 (MCH Binding Inhibition Test)
A human MCH-1R encoding cDNA sequence [FEBS Letters, Vol. 398, 253 (1996); Biochimica et Biophisica Acta, Vol. 1401, 216 (1998)] was cloned to a plasmid vector pEF/myc/cyto (Invitrogen Corporation). The obtained expression vector was transfected to host cells CHO-K1 (American Type Culture Collection) using Lipofectamine Plus Reagent (Life Technology Inc.) to provide MCH-1R expression cells.
Membrane samples prepared from the MCH-1R expression cells were incubated with each test compound and 50 pM of [^125I]MCH (NEN Co.), in an assay buffer (50 mM Tris buffer comprising 10 mM magnesium chloride, 2 mM ethylenediamine tetraacetate, 0.01% bacitracin and 0.2% bovine serum albumin; pH 7.4) at 25° C. for an hour, followed by filtration through a glass filter GF/C (Wattman Co.). After washing the glass filter with 50 mM Tris buffer (pH 7.4) comprising 10 mM magnesium chloride, 2 mM ethylenediamine tetraacetate and 0.04% Tween-20, the radioactive activity on the glass filter was measured. The non-specific binding was measured in the presence of 1 μM human MCH and 50% inhibition concentration (IC50 value) of each test compound to the specific [^125I]MCH binding was determined.

T1 sequence (Q99705 whole entry): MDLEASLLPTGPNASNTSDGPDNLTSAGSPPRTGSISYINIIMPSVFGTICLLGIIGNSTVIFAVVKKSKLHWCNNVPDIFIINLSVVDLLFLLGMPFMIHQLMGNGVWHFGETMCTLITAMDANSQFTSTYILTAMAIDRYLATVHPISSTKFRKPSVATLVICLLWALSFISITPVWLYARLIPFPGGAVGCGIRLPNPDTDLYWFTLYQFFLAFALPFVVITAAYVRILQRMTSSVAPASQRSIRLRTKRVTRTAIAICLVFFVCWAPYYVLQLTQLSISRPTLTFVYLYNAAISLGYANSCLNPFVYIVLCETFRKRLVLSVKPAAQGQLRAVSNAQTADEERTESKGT

CN(C)C/C=C/c1ccc(-n2ccc(OCc3ccc(Cl)cc3)cc2=O)cc1 [Example 8, 4-[(4-Chlorobenzyl)oxy]-1-(4-[(1E)-3-(dimethylamino)-1-propen-1-yl]phenyl)pyridin-2(1H)-one]
IC50: 1.4 nM

CCN(CC)CCc1ccc(-n2ccc(OCc3ccc(Cl)cn3)cc2=O)cc1 [Example 32, 4-[(5-Chloropyridin-2-yl)methoxy]-1-{4-[2-(diethylamino)ethyl]phenyl}pyridin-2(1H)-one]
IC50: 6.2 nM

CCN(C)C/C=C/c1ccc(-n2ccc(OCc3ccc(Cl)cc3)cc2=O)cc1 [Example 3, 4-[(4-Chlorobenzyl)oxy]-1-(4-{(1E)-3-[ethyl(methyl)amino]-1-propen-1-yl}phenyl)pyridin-2(1H)-one]
IC50: 1.5 nM

O=c1cc(OCc2ccc(F)cc2)ccn1-c1ccc(NCCN2CCCC2)cc1 [Example 14, 4-[(4-Fluorobenzyl)oxy]-1-{4-[(2-pyrrolidin-1-ylethyl)amino]phenyl}pyridin-2(1H)-one]
IC50: 4.5 nM

O=c1cc(OCc2ccc(Cl)cn2)ccn1-c1ccc(CCNC2CCCC2)cc1 [Example 37, 4-[(5-Chloropyridin-2-yl)methoxy]-1-{4-[(2-cyclopentylamino)ethyl]phenyl}pyridin-2(1H)-one]
IC50: 4.6 nM

CO[C@H]1CCN(CCc2ccc(-n3ccc(OCc4ccc(F)cc4)cc3=O)cc2)C1 [Example 27, 4-[(4-Fluorobenzyl)oxy]-1-(4-{2-[(3S)-3-methoxypyrrolidin-1-yl]ethyl}phenyl)pyridin-2(1H)-one]
IC50: 5.8 nM

CCCCN(C)C/C=C/c1ccc(-n2ccc(OCc3ccc(Cl)cc3)cc2=O)cc1 [Example 6, 4-[(4-Chlorobenzyl)oxy]-1-(4-{(1E)-3-[butyl(methyl)amino]-1-propen-1-yl}phenyl)pyridin-2(1H)-one]
IC50: 0.93 nM

O=c1cc(OCc2ccc(F)cc2)ccn1-c1ccc([C@H]2C[C@H](N3CCCC3)C2)cc1 [Example 53, 4-[(4-Fluorobenzyl)oxy]-1-[4-(trans-3-pyrrolidin-1-ylcyclobutyl)phenyl]pyridin-2(1H)-one]
IC50: 3.5 nM

CC(C)N(C)C/C=C/c1ccc(-n2ccc(OCc3ccc(Cl)cc3)cc2=O)cc1 [Example 5, 4-[(4-Chlorobenzyl)oxy]-1-(4-{(1E)-3-[isopropyl(methyl)amino]-1-propen-1-yl]phenyl}pyridin-2(1H)-one]
IC50: 1.4 nM

CCCN(C)C/C=C/c1ccc(-n2ccc(OCc3ccc(Cl)cc3)cc2=O)cc1 [Example 4, 4-[(4-Chlorobenzyl)oxy]-1-(4-{(1E)-3-[propyl(methyl)amino]-1-propen-1-yl}phenyl)pyridin-2(1H)-one]
IC50: 1.2 nM
